Data on 16 compounds can be found in US20250059171A1 (Hoffmann-La Roche Inc., priority 2021, published 2025).

The target in assay [1] is SARS-CoV 3CLpro (Severe acute respiratory syndrome coronavirus, UniProt P0C6X7). The assay is described as follows: biochemical.
In assay [2] the target is HCoV-229E 3CLpro (Human coronavirus 229E, UniProt P0C6X1). Description: HCoV-229E 3CLpro inhibition assay (FRET). The assay is classed as biochemical.
The target of assay [3] is SARS-CoV-2 3CLpro (Severe acute respiratory syndrome coronavirus 2, UniProt P0DTD1). Description: biochemical.
The target of assay [4] is MERS-CoV 3CLpro (Middle East respiratory syndrome-related coronavirus, UniProt K9N7C7). Description: biochemical.
Chain of MERS-CoV 3CLpro (K9N7C7 3248-3553): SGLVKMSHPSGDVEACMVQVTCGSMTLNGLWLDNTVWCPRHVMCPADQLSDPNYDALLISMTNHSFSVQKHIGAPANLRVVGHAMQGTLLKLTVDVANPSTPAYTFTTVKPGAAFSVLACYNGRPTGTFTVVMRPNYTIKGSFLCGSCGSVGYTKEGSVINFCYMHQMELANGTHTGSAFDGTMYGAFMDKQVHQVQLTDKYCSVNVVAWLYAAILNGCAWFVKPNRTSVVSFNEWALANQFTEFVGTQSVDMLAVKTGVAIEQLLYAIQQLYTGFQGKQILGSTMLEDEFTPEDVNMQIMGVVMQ

Chain of HCoV-229E 3CLpro (P0C6X1 2966-3267): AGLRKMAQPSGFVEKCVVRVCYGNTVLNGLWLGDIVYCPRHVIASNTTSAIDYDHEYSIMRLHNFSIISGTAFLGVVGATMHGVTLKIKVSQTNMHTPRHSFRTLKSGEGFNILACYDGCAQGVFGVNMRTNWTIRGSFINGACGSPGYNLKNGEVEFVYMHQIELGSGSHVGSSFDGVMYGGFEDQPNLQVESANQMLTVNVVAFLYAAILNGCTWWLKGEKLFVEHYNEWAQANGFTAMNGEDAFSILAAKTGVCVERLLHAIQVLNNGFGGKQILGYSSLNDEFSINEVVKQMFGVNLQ

As for `CC(C)(C)[C@H](NC(=O)C1CC1(F)F)C(=O)N1C[C@@H]2CCC[C@@H]2[C@H]1C(=O)NN(C[C@@H]1CCNC1=O)C(=O)[C@H](F)Cl` (mixture of isomers) [Example 34, Rac-2,2-difluoro-N-[(1S)-2,2-dimethyl-1-[(3S,3aS,6aR)-3-[[[(2R)-2-chloro-2-fluoro-acetyl]-[[(3S)-2-oxopyrrolidin-3-yl]methyl]amino]carbamoyl]-3,3a,4,5,6,6a-hexahydro-1H-cyclopenta[c]pyrrole-2-carbonyl]propyl]cyclopropanecarboxamide], the IC50 in assay [1] is 12 nM; in assay [2] it was 23 nM; in assay [3] it was 8 nM; in assay [4] it was 66 nM.

As to `CC(F)C(=O)N[C@H](C(=O)N1C[C@@H]2CCC[C@@H]2[C@H]1C(=O)NN(C[C@@H]1CCNC1=O)C(=O)[C@H](F)Cl)C(C)(C)C` (mixture of isomers) [Example 36, Rac-2-fluoro-N-[(1S)-2,2-dimethyl-1-[(3S,3aS,6aR)-3-[[[(2R)-2-chloro-2-fluoro-acetyl]-[[(3S)-2-oxopyrrolidin-3-yl]methyl]amino]carbamoyl]-3,3a,4,5,6,6a-hexahydro-1H-cyclopenta[c]pyrrole-2-carbonyl]propyl]propanamide], the IC50 in assay [1] is 12 nM; in assay [2] it was 34 nM; in assay [3], 7 nM; in assay [4], 93 nM.

Consider `CC[C@H](C)[C@H](NC(=O)C1CC1(F)F)C(=O)N1C[C@@H]2CCC[C@@H]2[C@H]1C(=O)NN(C[C@@H]1CCNC1=O)C(=O)[C@H](F)Cl` (mixture of isomers) [Example 41, Rac-2,2-difluoro-N-[(1S,2S)-2-methyl-1-[(3S,3aS,6aR)-3-[[[(2R)-2-chloro-2-fluoro-acetyl]-[[(3S)-2-oxopyrrolidin-3-yl]methyl]amino]carbamoyl]-3,3a,4,5,6,6a-hexahydro-1H-cyclopenta[c]pyrrole-2-carbonyl]butyl]cyclopropanecarboxamide], for which the IC50 came to 33 nM in assay [1], 68 nM in assay [2], 7 nM in assay [3] and 221 nM in assay [4].

On to `CC[C@H](C)[C@H](NC(=O)C(C)F)C(=O)N1C[C@@H]2CCC[C@@H]2[C@H]1C(=O)NN(C[C@@H]1CCNC1=O)C(=O)[C@H](F)Cl` (mixture of isomers) [Example 43, Rac-2-fluoro-N-[(1S,2S)-2-methyl-1-[(3S,3aS,6aR)-3-[[[(2R)-2-chloro-2-fluoro-acetyl]-[[(3S)-2-oxopyrrolidin-3-yl]methyl]amino]carbamoyl]-3,3a,4,5,6,6a-hexahydro-1H-cyclopenta[c]pyrrole-2-carbonyl]butyl]propanamide], for which the IC50 was determined as 11 nM in assay [1], 22 nM in assay [2], 8 nM in assay [3] and 58 nM in assay [4].

For `CC[C@H](C)[C@H](NC(=O)C1CC1(F)F)C(=O)N1C[C@H]2[C@@H]([C@H]1C(=O)NN(C[C@@H]1CCNC1=O)C(=O)[C@H](F)Cl)C2(C)C` (mixture of isomers) [Example 53, Rac-2,2-difluoro-N-[(1S,2S)-2-methyl-1-[(1R,2S,5S)-6,6-dimethyl-2-[[[(2R)-2-chloro-2-fluoro-acetyl]-[[(3S)-2-oxopyrrolidin-3-yl]methyl]amino]carbamoyl]-3-azabicyclo[3.1.0]hexane-3-carbonyl]butyl]cyclopropanecarboxamide], the IC50 in assay [1] is 13 nM; in assay [2] it was 32 nM; in assay [3], 8 nM; in assay [4], 87 nM.

Take `CC[C@H](C)[C@H](NC(=O)C(C)F)C(=O)N1C[C@H]2[C@@H]([C@H]1C(=O)NN(C[C@@H]1CCNC1=O)C(=O)[C@H](F)Cl)C2(C)C` (mixture of isomers) [Example 56, Rac-2-fluoro-N-[(1S,2S)-2-methyl-1-[(1R,2S,5S)-6,6-dimethyl-2-[[[(2R)-2-chloro-2-fluoro-acetyl]-[[(3S)-2-oxopyrrolidin-3-yl]methyl]amino]carbamoyl]-3-azabicyclo[3.1.0]hexane-3-carbonyl]butyl]propanamide]: the IC50 in assay [1] amounted to 11 nM; in assay [2] it was 18 nM; in assay [3], 8 nM; in assay [4], 52 nM.

Turning to `CC(C)(C)[C@H](NC(=O)C(F)(F)F)C(=O)N1CC2(CC2)C[C@H]1C(=O)NN(C[C@@H]1CCNC1=O)C(=O)[C@H](F)Cl` [Example 6, N-[(1S)-1-[(6S)-6-[[[(2R)-2-chloro-2-fluoro-acetyl]-[[(3S)-2-oxopyrrolidin-3-yl]methyl]amino]carbamoyl]-5-azaspiro[2.4]heptane-5-carbonyl]-2,2-dimethyl-propyl]-2,2,2-trifluoro-acetamide], the values for the concentration for half-maximal inhibition (IC50) in assay [1], in assay [2] and in assay [4] were 14 nM, 42 nM and 109 nM, respectively.

In the case of `CC1(C)[C@@H]2[C@@H](C(=O)NN(C[C@@H]3CCNC3=O)C(=O)[C@H](F)Cl)N(C(=O)COc3cc(F)cc(F)c3)C[C@@H]21` [Example 17, (1R,2S,5S)—N′-[(2R)-2-chloro-2-fluoro-acetyl]-3-[2-(3,5-difluorophenoxy)acetyl]-6,6-dimethyl-N′—[[(3S)-2-oxopyrrolidin-3-yl]methyl]-3-azabicyclo[3.1.0]hexane-2-carbohydrazide], the IC50 was 429 nM in assay [1], 121 nM in assay [3] and 408 nM in assay [4].

`CC(C)(C)[C@H](NC(=O)C(F)(F)F)C(=O)N1C[C@H]2[C@@H]([C@H]1C(=O)NN(C[C@@H]1CCNC1=O)C(=O)CCl)C2(C)C` [Example 18, N-[(1S)-1-[(1R,2S,5S)-2-[[(2-chloroacetyl)-[[(3S)-2-oxopyrrolidin-3-yl]methyl]amino]carbamoyl]-6,6-dimethyl-3-azabicyclo[3.1.0]hexane-3-carbonyl]-2,2-dimethyl-propyl]-2,2,2-trifluoro-acetamide]: the results for the half-inhibitory concentration (IC50) in assay [1] and in assay [4] were 429 nM and 408 nM, respectively.

`CC[C@H](C)[C@H](NC(=O)C(F)(F)C(F)(F)F)C(=O)N1C[C@@H]2CCC[C@@H]2[C@H]1C(=O)NN(C[C@@H]1CCNC1=O)C(=O)[C@H](F)Cl` [Example 50, N-[(1S,2S)-1-[(3S,3aS,6aR)-3-[[[(2R)-2-chloro-2-fluoro-acetyl]-[[(3S)-2-oxopyrrolidin-3-yl]methyl]amino]carbamoyl]-3,3a,4,5,6,6a-hexahydro-1H-cyclopenta[c]pyrrole-2-carbonyl]-2-methyl-butyl]-2,2,3,3,3-pentafluoro-propanamide]: the IC50 in assay [1] was 8 nM; in assay [2] it was 17 nM; in assay [4], 42 nM.

Turning to `CC1(C)[C@@H]2[C@@H](C(=O)NN(C[C@@H]3CCNC3=O)C(=O)[C@H](F)Cl)N(C(=O)[C@H](CC34CC(C3)C4)NC(=O)C(F)(F)F)C[C@@H]21` [Example 65, N-[(1S)-1-(1-bicyclo[1.1.1]pentanylmethyl)-2-[(1R,2S,5S)-2-[[[(2R)-2-chloro-2-fluoro-acetyl]-[[(3S)-2-oxopyrrolidin-3-yl]methyl]amino]carbamoyl]-6,6-dimethyl-3-azabicyclo[3.1.0]hexan-3-yl]-2-oxo-ethyl]-2,2,2-trifluoro-acetamide], the half-maximal inhibitory concentration (IC50) in assay [2] turned out to be 25 nM. This counts as double-digit nanomolar.

On to `CCC(CC)[C@H](NC(=O)C(F)(F)F)C(=O)N1C[C@H]2[C@@H]([C@H]1C(=O)NN(C[C@@H]1CCNC1=O)C(=O)[C@H](F)Cl)C2(C)C` [Example 84, N-[(1S)-1-[(1R,2S,5S)-2-[[[(2R)-2-chloro-2-fluoro-acetyl]-[[(3S)-2-oxopyrrolidin-3-yl]methyl]amino]carbamoyl]-6,6-dimethyl-3-azabicyclo[3.1.0]hexane-3-carbonyl]-2-ethyl-butyl]-2,2,2-trifluoro-acetamide], for which the IC50 in assay [1] is 14 nM; in assay [2], 30 nM; in assay [4], 87 nM.

Turning to `O=C1NCC[C@H]1CN(NC(=O)[C@@H]1[C@H]2CCC[C@H]2CN1C(=O)COc1cccc(F)c1)C(=O)[C@H](F)Cl` [Example 88a, (3S,3aS,6aR)—N′-[(2R)-2-chloro-2-fluoro-acetyl]-2-[2-(3-fluorophenoxy)acetyl]-N′—[[(3S)-2-oxopyrrolidin-3-yl]methyl]-3,3a,4,5,6,6a-hexahydro-1H-cyclopenta[c]pyrrole-3-carbohydrazide], the concentration for half-maximal inhibition (IC50) in assay [3] is 42 nM; in assay [4], 249 nM.

Regarding `O=C1NCC[C@H]1CN(NC(=O)[C@H]1[C@@H]2CCC[C@@H]2CN1C(=O)COc1cccc(F)c1)C(=O)[C@H](F)Cl` [Example 88b, (3R,3aR,6aS)—N′-[(2R)-2-chloro-2-fluoro-acetyl]-2-[2-(3-fluorophenoxy)acetyl]-N′—[[(3S)-2-oxopyrrolidin-3-yl]methyl]-3,3a,4,5,6,6a-hexahydro-1H-cyclopenta[c]pyrrole-3-carbohydrazide], the 50% inhibitory concentration (IC50) in assay [3] was greater than 10000 nM; in assay [4], 155 nM.

For `O=C1NCC[C@H]1CN(NC(=O)[C@@H]1[C@H]2CCC[C@H]2CN1C(=O)COc1cc(F)cc(F)c1)C(=O)[C@H](F)Cl` [Example 89a, (3S,3aS,6aR)—N′-[(2R)-2-chloro-2-fluoro-acetyl]-2-[2-(3,5-difluorophenoxy)acetyl]-N′—[[(3S)-2-oxopyrrolidin-3-yl]methyl]-3,3a,4,5,6,6a-hexahydro-1H-cyclopenta[c]pyrrole-3-carbohydrazide], the IC50 in assay [3] is 51 nM; in assay [4], greater than 10000 nM.

On to `O=C1NCC[C@H]1CN(NC(=O)[C@H]1[C@@H]2CCC[C@@H]2CN1C(=O)COc1cc(F)cc(F)c1)C(=O)[C@H](F)Cl` [Example 89b, (3R,3aR,6aS)—N′-[(2R)-2-chloro-2-fluoro-acetyl]-2-[2-(3,5-difluorophenoxy)acetyl]-N′—[[(3S)-2-oxopyrrolidin-3-yl]methyl]-3,3a,4,5,6,6a-hexahydro-1H-cyclopenta[c]pyrrole-3-carbohydrazide], for which the results for the half-inhibitory concentration (IC50) in assay [3] and in assay [4] were greater than 10000 nM and 193 nM, respectively.
